The values below come from patent publication US7903239B2, “Porous photonic crystal with light scattering domains and methods of synthesis and use thereof” (priority 2004, dated 2011).

Data set [1] concerns primary rat hepatocytes. As to the kind of experiment: Light scattering from hepatocytes seeded on a porous Si photonic crystal (CCD spectrometer, in incubator). It is filed as cell-based. As to conditions: 50 μM Cd^2+.
Method: Hepatocytes were isolated from 2-3 month old adult female Lewis rats by collagenase perfusion as previously described. Hepatocytes were then seeded on the polystyrene-coated porous silicon samples or on tissue-culture polystyrene dishes.
Hepatocytes were then seeded on the activated polystyrene-coated chip.
Cell seeding. Porous Si photonic crystal samples were sterilized in a 35 mm dish with 2 mL of 100% ethanol for 1 hour. Ethanol was removed and the samples were allowed to dry in a sterile laminar-flow hood. The samples and dish were washed twice with sterile water. To improve adhesion, 2 mL of a 0.1 mg/mL solution of rat-tail collagen (collagen I) was added to the dish, and the samples were incubated at 37° C. for one h. The collagen-coated samples were then washed once with sterile water, and once with growth media. Media for all experiments was DMEM with high glucose (Invitrogen), 10% fetal bovine serum, supplemented with 0.5 U/mL insulin, 7 ng/mL glucagon, 7.5 mg/mL hydrocortisone, 10 U/mL penicillin, and 10 mg/mL streptomycin. Hepatocytes were isolated from 2-3 month old adult female Lewis rats by collagenase perfusion as previously described. Less than one hour after isolation, 1.25×10^6 cells per dish were seeded in 2 mL of media for scattering experiments and 6×10^5 cells per dish for microscope experiments. As the porous Si samples were smaller than the dish, some cells settled and attached to the polystyrene surface. Unattached cells were removed after one hour and dishes were incubated at 37° C., 5% CO2 for 24 hours to allow spreading before the start of observation.
Reflectance spectra were collected using an Ocean Optics S-2000 CCD spectrometer fitted with a microscope objective lens coupled to either a bifurcated fiber optic cable (for specular measurements) or a single fiber optic cable (for scattering measurements). […]
Another data set relates to rat hepatocyte cells. Kind of data set: MTT cell viability assay. As to conditions: 50 μM Cd^2+, after ~10 h. It is filed as cell-based. In general terms: Tetrazolium assays rely on reduction of a dye to a coloured formazan, in cell work by metabolically active cells.
Data set [2] has as its system hepatocytes. Kind of data set: Reflectance microscopy of non-incubated hepatocytes on porous Si photonic crystal. It is filed as cell-based, rat. As to conditions: 200 μM Cd^2+, eighty-five min after introduction, cells not incubated. The protocol: More particularly, measurement of light scattered from a monolayer of hepatocyte cells on a porous Si photonic crystal is used to measure changes in cellular morphology. Data were collected after hepatocytes were administered a toxic dose of aqueous cadmium chloride (200 μM). […] Upon exposure to Cd^2+, characteristic changes in morphology that accompany loss of viability, such as blebbing and increased granularity, are observed (FIG. 9b). The optical setup produces more dramatic images upon exposure to a toxic dose of Cd^2+. In this arrangement, cells appear with a color characteristic of the underlying photonic crystal, while the regions that are not covered with cells appear darker (FIG. 5a). After loss of viability, the cytoplasm appears brighter, leading to greater nuclear and cell boundary contrast (FIG. 5b).
Optical measurements. […] Images were processed on Metamorph and JImage. […] Pictures were obtained at time 0 and 85 minutes.

Data set [3] concerns primary rat hepatocytes. Kind of data set: Phase-contrast microscopy of hepatocytes on tissue-culture polystyrene plates. As to conditions: 50 μM Cd^2+. The protocol:
Optical measurements. Images for cells seeded on porous silicon photonic crystals were collected using a reflectance microscope and a 10× LWD objective with on-normal and off-normal illumination using a white light source. Phase contrast images for cells seeded on tissue cultured polystyrene multi-well plates were obtained on a Nikon TE200 microscope with a 10× objective and captured with a camera. Images were processed on Metamorph and JImage. […] Cells were seeded on the porous Si chips at less than 100% coverage so that the porous silicon background could provide contrast. In order to follow the same subset of cells throughout the course of morphology changes for the Cd^2+ toxicity studies, the cells were not incubated while monitoring with the microscope. Rather, cells were placed on a chip and Cd^2+ concentration was adjusted to a final concentration of 200 μM. Pictures were obtained at time 0 and 85 minutes.

Data set [4] concerns hepatocytes. As to conditions: Cd^2+ in the 50-400 μM range; cited from earlier work.

Turning to `[Cl][Cd][Cl]` [Cd^2+, cadmium chloride], in the data set on primary rat hepatocytes [1], the “time after which intensity of scattered light reaches a constant value” is about 10 h, the “time after which relative scattered intensity shows a significant increase” value was about 2 h and the “time by which scattering changes precede first loss of viability in MTT stain” value is given as about 2 h. The “viability according to MTT stain, % of the initial value” in the data set on rat hepatocyte cells is listed as about 50%. In addition, the “hepatocytes that have lost viability” value in the data set on hepatocytes [2] is over 90%. In the data set on primary rat hepatocytes [3], the “hepatocyte morphology by phase contrast” value is reported as “granular appearance increases substantially, even after 2 h” and the “time by which most cellular features become indistinguishable” value is at most 14 h. Moreover, the “time of cell damage (decrease in membrane and metabolic integrity)” value in the data set with hepatocytes [4] is “within the first hour of exposure”.
